# In US11590089B2, “Beta-2 selective adrenergic receptor agonists” (The Board of Trustees of the Leland Stanford Junior …, priority 2017, dated 2023):
# Like-named read-outs stand apart in the source and are kept apart here.
# Assays:
# [1] = biological target: T1, β1-AR (Homo sapiens, UniProt P08588); experiment: radioligand binding assay, β1-AR, [3H]CGP12177; details: radioligand [3H]CGP12177; values given as a range are from screening experiments with a low number of repeats; read-out: Ki β1-AR [3H]CGP12177
# Protocol: (§1) The binding affinities of exemplary compounds of interest at β1AR and β2AR were evaluated in a binding assay.
# Target sequence in this assay (P08588 whole entry): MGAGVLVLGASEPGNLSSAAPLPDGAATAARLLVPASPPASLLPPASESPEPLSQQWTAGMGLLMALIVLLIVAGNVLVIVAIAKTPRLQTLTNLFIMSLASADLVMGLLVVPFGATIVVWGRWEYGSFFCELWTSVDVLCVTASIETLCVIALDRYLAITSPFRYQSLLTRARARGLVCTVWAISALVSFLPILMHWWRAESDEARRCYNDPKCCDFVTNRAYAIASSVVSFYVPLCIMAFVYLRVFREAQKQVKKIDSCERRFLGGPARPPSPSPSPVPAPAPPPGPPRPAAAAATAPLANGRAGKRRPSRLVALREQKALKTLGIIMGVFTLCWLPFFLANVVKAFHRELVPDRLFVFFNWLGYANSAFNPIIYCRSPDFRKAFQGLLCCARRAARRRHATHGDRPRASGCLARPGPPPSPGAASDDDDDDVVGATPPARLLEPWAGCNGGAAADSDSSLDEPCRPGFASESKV
# [2] = biological target: T2, β2-AR (Homo sapiens, UniProt P07550); experiment: radioligand binding assay, β2-AR, [3H]CGP12177; details: radioligand [3H]CGP12177; values given as a range are from screening experiments with a low number of repeats; read-out: Ki β2-AR [3H]CGP12177
# Protocol: as §1
# Target sequence in this assay (P07550 whole entry): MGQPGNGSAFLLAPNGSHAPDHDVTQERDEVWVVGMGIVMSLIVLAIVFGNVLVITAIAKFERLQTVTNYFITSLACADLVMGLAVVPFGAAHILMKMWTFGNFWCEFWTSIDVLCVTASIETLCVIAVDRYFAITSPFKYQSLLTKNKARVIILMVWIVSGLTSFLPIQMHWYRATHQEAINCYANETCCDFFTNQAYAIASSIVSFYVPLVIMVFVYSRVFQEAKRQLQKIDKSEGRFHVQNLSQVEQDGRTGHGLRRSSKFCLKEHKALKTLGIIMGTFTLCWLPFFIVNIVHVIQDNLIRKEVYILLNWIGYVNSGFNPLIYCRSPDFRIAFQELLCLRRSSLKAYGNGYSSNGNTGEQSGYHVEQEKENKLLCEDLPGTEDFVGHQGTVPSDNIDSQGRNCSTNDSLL
# [3] = biological target: T3, •1A-AR (Homo sapiens, UniProt P35348); experiment: radioligand binding assay, α1A-AR, [3H]prazosin
# T3 sequence (P35348 1-466): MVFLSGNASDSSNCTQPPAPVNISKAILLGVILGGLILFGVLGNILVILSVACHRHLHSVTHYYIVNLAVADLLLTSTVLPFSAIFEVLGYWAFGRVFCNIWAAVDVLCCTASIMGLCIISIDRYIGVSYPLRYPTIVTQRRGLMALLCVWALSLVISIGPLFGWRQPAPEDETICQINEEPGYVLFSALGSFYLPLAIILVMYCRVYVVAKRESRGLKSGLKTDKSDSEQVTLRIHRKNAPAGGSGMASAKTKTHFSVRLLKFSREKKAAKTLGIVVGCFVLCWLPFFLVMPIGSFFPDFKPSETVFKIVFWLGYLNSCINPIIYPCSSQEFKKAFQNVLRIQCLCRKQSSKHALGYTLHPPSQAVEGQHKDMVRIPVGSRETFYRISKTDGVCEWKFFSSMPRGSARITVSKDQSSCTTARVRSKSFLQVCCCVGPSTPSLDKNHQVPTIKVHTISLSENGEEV
# [4] = biological target: T4, α2A-AR (Homo sapiens, UniProt P08913); experiment: radioligand binding assay, α2A-AR, [3H]RX821002; details: radioligand [3H]RX821002; values given as a range are from screening experiments with a low number of repeats
# T4 sequence (P08913 1-465): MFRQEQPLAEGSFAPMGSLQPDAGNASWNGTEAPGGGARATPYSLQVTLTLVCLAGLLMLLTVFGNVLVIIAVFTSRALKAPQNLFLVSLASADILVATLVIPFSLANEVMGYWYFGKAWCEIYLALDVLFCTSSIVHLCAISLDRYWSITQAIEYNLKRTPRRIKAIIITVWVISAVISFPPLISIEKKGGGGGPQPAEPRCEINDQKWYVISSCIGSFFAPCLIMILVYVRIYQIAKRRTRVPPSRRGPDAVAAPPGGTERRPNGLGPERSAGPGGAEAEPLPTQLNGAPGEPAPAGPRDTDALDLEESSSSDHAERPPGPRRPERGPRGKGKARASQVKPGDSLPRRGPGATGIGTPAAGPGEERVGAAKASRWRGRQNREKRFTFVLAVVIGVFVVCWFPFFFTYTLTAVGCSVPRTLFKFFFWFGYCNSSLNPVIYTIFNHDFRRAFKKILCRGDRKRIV
# [5] = biological target: T1, β1-AR; experiment: β-arrestin-2 recruitment assay at β1-AR; type: cell-based; details: for EC50: n.d. = could not be determined because of lack of activity, ranges from screening experiments with a low number of repeats, read-out: β-arrestin-2 recruitment β1-AR EC50; for β-arrestin-2 recruitment β1-AR Emax: relative to norepinephrine
# Target sequence in this assay (P08588 whole entry): as the sequence (P08588 whole entry) above
# Target sequence in this assay (P32121 whole entry partner): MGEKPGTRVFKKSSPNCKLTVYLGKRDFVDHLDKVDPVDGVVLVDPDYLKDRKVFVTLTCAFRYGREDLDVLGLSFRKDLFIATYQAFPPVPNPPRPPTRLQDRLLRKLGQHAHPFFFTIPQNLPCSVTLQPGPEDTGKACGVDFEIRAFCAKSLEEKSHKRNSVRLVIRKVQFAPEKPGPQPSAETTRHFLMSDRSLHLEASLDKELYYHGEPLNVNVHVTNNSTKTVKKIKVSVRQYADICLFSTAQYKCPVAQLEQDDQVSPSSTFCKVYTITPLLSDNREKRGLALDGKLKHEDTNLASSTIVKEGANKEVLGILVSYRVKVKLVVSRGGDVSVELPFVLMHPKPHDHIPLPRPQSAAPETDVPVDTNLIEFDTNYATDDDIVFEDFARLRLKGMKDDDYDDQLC
# [6] = biological target: T2, β2-AR; experiment: β-arrestin-2 recruitment assay at β2-AR; type: cell-based; details: for EC50: n.d. = could not be determined because of lack of activity, ranges from screening experiments with a low number of repeats, read-out: β-arrestin-2 recruitment β2-AR EC50; for β-arrestin-2 recruitment β2-AR Emax: relative to norepinephrine
# Target sequence in this assay (P07550 whole entry): as the sequence (P07550 whole entry) above
# Target sequence in this assay (P32121 whole entry partner): as the sequence (P32121 whole entry partner) above
# [7] = radioligand [3H]prazosin, values given as a range are from screening experiments with a low number of repeats, read-out: Ki •1A-AR [3H]prazosin
SMILES,Ki [1],Ki [2],"Ki [3, 7]",Ki [4],EC50 [5],β-arrestin-2 recruitment β1-AR Emax [5],EC50 [6],β-arrestin-2 recruitment β2-AR Emax [6],Ki [3]
"COCC(COC)N[C@@H]1CCc2c(ccc(O)c2O)[C@H]1O [LM 114, (5R,6R)-6-((1,3-dimethoxypropan-2-yl)amino)-5,6,7,8-tetrahydronaphthalene-1,2,5-triol]",40 to 80 µM,0.6 to 1.5 µM,10 to 20 µM,6 to 12 µM,30 to 60 µM,35 % norepinephrine,0.5 to 1 µM,125 % norepinephrine,
"Oc1ccc2c(c1O)CC[C@@H](NCCF)[C@@H]2O [LM 80, (5R,6R)-6-((2-fluoroethyl)amino)-5,6,7,8-tetrahydronaphthalene-1,2,5-triol]",7 µM,0.28 µM,> 90 µM,30 µM,3 µM,81 % norepinephrine,0.066 µM,110 % norepinephrine,
"C[Si](C)(C)CN[C@@H]1CCc2c(ccc(O)c2O)[C@H]1O [LM 118, (5R,6R)-6-(((trimethylsilyl)methyl)amino)-5,6,7,8-tetrahydronaphthalene-1,2,5-triol]",≥ 50 µM,0.2 to 0.5 µM,5 to 10 µM,8 to 15 µM,25 to 70 µM,40 % norepinephrine,0.12 to 0.25 µM,119 % norepinephrine,
"Oc1ccc2c(c1O)CC[C@@H](NCC1CC(F)(F)C1)[C@@H]2O [LM 112, (5R,6R)-6-(((3,3-difluorocyclobutyl)methyl)amino)-5,6,7,8-tetrahydronaphthalene-1,2,5-triol]",5 to 12 µM,0.025 to 0.07 µM,,8 to 15 µM,6 to 14 µM,45 % norepinephrine,0.01 to 0.02 µM,124 % norepinephrine,5 to 8 µM
